US6329392A, “Substituted piperidines useful for the treatment of allergic diseases” (Aventis Pharmaceuticals, Inc., priority 1998, dated 2001)
Read-outs that look alike come from different tables or passages of the source.

Assays:
[1] = target: T1, H1 receptor (Cavia porcellus, UniProt P31389); test: Histamine (H1) antagonism in guinea pig ileum; assay type: cell-based
T1 construct: A piece of ileum, about 20 cm in length, is removed and cut into 2 cm pieces; from tissue; host or cells: ileum of male Hartley guinea pigs
Method: Male Hartley guinea pigs, weighing 200-450 grams, are sacrificed by CO2 asphyxiation. A piece of ileum, about 20 cm in length, is removed and cut into 2 cm pieces. Each ileum piece is placed in an organ bath at 37° C. containing Tyrode's solution and is constantly aerated with 95% O2 /5%CO2. Tyrode's solution has the composition: NaCl 136.9 mM, KCl […], CaCl2 1.8 mM, NaH2 PO4 0.42 mM, NaHCO3 11.9 mM, and dextrose 5.55 mM. Contractions are measured with an isometric transducer (Grass FTO3C), and are recorded on a polygraph recorder and/or a computer. The ileum strips are loaded with 1.0 grams of tension and allowed to equilibrate for a minimum of 30 minutes before starting the experiments.
The potency of the antagonism is determined by the magnitude of the shift and is expressed as a pA2 value which is the negative logarithm of the molar concentration of antagonist which produces a two-fold shift of the dose response curve to the right. The pA2 value is calculated by using Schild analysis. O. Arunlakshana and H. O. Schild, Br. J. Pharmacol Chemother. 14, 48-58 (1958).
Table 1 presents pA2 values by the method of Example 93 which indicate potency of H1 receptor antagonism and IC50 values by the method of Example 95 which indicates NK1 receptor binding affinity for representative compounds of the present invention.

[2] = target: T2, NK1 receptor (Cavia porcellus, UniProt P30547); test: Antagonism of iodinated tachykinin (substance P) binding to NK1 receptors in guinea pig lungs; settings: read-out: NK1 Receptor Binding Affinity, IC50
T2 construct: as evaluated in guinea pig lungs (Keystone Biologicals, Cleveland, Ohio); tissue Keystone Biologicals, Cleveland, Ohio; host or cells: guinea pig lung membranes
Method: Antagonism of iodinated tachykinin binding to NK1 receptors by putative antagonists
One skilled in the art can measure the NK1 receptor affinity of proposed tachykinin antagonists as evaluated in guinea pig lungs (Keystone Biologicals, Cleveland, Ohio). Tissues or cells are homogenized with a Polytron in 15 volumes of 50 mM Tris-HCl buffer (pH 7.4, […]) and centrifuged. The pellet is resuspended in Tris-HCl buffer and centrifuged; the pellet is washed twice by resuspension. The final pellet is resuspended at a concentration of 40 mg/ml incubation buffer and remains at room temperature for at least 15 min prior to use. […] Incubations are performed at room temperature for 90 min; binding is terminated by addition of 50 mM Tris-HCl buffer (pH 7.4, […]) and filtration under vacuum through GF/B filters presoaked with 0.1% polyethyleneimine. Filter bound radioactivity is quantitated in a gamma counter. […] IC50 values (concentration required to inhibit 50% of receptor binding) are generated for each of the test compounds by nonlinear regression using an iterative curve fitting program (GraphPAD Inplot, San Diego, Calif.).

[3] = read-out: H1 Receptor Antagonism, pA2, in vitro (converted)

T2 sequence (P30547 whole entry): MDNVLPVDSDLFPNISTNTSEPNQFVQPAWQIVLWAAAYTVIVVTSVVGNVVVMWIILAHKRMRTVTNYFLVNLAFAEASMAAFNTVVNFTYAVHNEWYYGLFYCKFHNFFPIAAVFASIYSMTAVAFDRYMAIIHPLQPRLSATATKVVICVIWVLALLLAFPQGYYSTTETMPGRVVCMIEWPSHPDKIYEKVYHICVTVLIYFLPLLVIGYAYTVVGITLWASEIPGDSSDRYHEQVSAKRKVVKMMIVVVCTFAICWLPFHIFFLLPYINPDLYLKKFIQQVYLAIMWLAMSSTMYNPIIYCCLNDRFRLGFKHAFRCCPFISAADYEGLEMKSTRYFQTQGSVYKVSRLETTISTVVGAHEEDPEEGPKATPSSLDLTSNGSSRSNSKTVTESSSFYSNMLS
T1 sequence (P31389 whole entry): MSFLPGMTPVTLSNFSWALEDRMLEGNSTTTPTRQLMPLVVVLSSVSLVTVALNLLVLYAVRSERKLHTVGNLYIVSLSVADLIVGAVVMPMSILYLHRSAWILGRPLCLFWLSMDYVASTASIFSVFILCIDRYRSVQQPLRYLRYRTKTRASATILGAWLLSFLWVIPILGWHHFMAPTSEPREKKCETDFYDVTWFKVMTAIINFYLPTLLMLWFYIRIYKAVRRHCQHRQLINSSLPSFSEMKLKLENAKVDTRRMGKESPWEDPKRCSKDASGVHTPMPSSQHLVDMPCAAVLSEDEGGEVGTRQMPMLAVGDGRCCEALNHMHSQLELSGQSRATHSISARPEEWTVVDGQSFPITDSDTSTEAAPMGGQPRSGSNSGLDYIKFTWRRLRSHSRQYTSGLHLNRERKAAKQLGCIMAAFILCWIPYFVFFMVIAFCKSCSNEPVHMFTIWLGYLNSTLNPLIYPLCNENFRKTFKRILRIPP

SMILES | Kb [1, 3] [nM] | IC50 [2] [nM] | IC50 ([2]; guinea pig lungs, 0.1 nM 125I-Bolton Hunter Lys-3 labeled substance P, room temperature 90 min, pH 7.4) [nM] | Kb [1] [nM]
COc1cc(CN2CCC(CCN3CCC(O)(c4nc5ccccc5n4Cc4ccc(F)cc4)CC3)(Cc3ccc(Cl)c(Cl)c3)C2=O)cc(OC)c1OC (centres unmarked) [Example 54, 1-(3,4,5-Trimethoxy-benzvl)-3-[2-[4-[1-(4-fluoro-benzyl)-1H-benzoimidazol-2-yl]-4-hydroxy-piperidin-1-yl]-ethyl]-3-(3,4-dichloro-phenylmethyl)-2-oxo-pyrrolidine] | 479 | 269 | – | –
COc1cc(C(=O)N2CCC(CCN3CCC(C(=O)c4nc5ccccc5n4CCN4CCOCC4)CC3)(c3ccc(Cl)c(Cl)c3)C2)cc(OC)c1OC (centres unmarked) [Example 32, 1-(3,4,5-Trimethoxy-benzoyl)-3-[2-[4-[1-(2-(morpholin-4-yl)-ethyl)-1 H-benzoimidazole-2-carbonyl]-piperidin-1-yl]-ethyl]-3-(3,4-dichlororphenyl)-pyrrolidine] | 513 | 15 | – | –
CC(C)Oc1cccc(CC(=O)N2CCCC(CCN3CCC(C(=O)c4nc5ccccc5n4Cc4ccc(F)cc4)CC3)(c3ccc(Cl)c(Cl)c3)C2)c1 (centres unmarked) [Example 63, 1-(3-Isopropoxy-phenyl-acetyl)-3-[2-[4-[1-(4-fluoro-benzyl)-1H-benzoimidazole-2-carbonyl]-piperidin-1-yl]-ethyl]-3-(3,4-dichloro-phenyl)-piperidine] | 79.4 | 279 | – | –
COc1ccc(C2(CCN3CCC(c4nc5ccccc5s4)CC3)CCN(C(=O)c3ccccc3)C2)cc1OC (centres unmarked) [Example 4, 1-Benzoyl-3-[2-[4-(benzothiazol-2-yl)-piperidin-1-yl]-ethyl]-3-(3,4-dimethoxy-phenyl)-pyrrolidine] | 158 | 2590 | – | –
CCOCCn1c(C(=O)C2CCN(CCC3(c4ccc(Cl)c(Cl)c4)CCN(C(=O)c4cc(OC)c(OC)c(OC)c4)C3)CC2)nc2ccccc21 (centres unmarked) [Example 83, 1-(3,4,5-Trimethoxy-benzoyl)-3-[2-[4-[1-(2-ethoxy-ethyl)-1H-benzoimidazole-2-carbonyl]-piperidin-1-yl]-ethyl]-3-(3,4-dichloro-phenyl)-pyrrolidine] | 105 | 31 | – | –
CC(C)Oc1cccc(CC(=O)N2CCC(CCN3CCC(C(=O)c4nc5ccccc5n4Cc4ccc(F)cc4)CC3)(c3ccc4c(c3)OCO4)C2)c1 (centres unmarked) [Example 26, 1-(3-Isopropoxy-phenyl-acetyl)-3-[2-[4-[1-(4-fluoro-benzyl)-1 H-benzoimidazole-2-carbonyl]-piperidin-1-yl]-ethyl]-3-(benzo[1,3]dioxol-5-yl)-pyrrolidine] | 61.7 | 288 | – | –
COc1cc(C(=O)N2CCC(CCN3CCC(C(=O)c4nc5ccccc5n4Cc4ccc(F)cc4)CC3)(c3ccc4c(c3)OCO4)C2)cc(OC)c1OC (centres unmarked) [Example 10, 1-(3,4,5-Trimethoxy-benzoyl)-3-[2-[4-[1-(4-fluoro-benzyl)-1 H-benzoimidazole-2-carbonyl]-piperidin-1-yl]-ethyl]-3-(benzo[1,3]dioxol-5-yl)-pyrrolidine] | 60.3 | – | 146 | –
COc1ccc(C2(CCN3CCC(O)(c4nc5ccccc5n4Cc4ccc(F)cc4)CC3)CCN(C(=O)c3ccccc3)C2)cc1OC (centres unmarked) [Example 3, 1-Benzoyl-3-[2-[4-[1-(4-fluoro-benzyl)-1 H-benzoimidazol-2-yl]-4-hydroxy-piperidin-1-yl]-ethyl]-3-(3,4-dimethoxy-phenyl)-pyrrolidine] | – | 406 | – | 37.2
COc1cc(C(=O)N2CCC(CCN3CCC(C(=O)c4nc5ccccc5n4Cc4ccccn4)CC3)(c3ccccc3)C2)cc(OC)c1OC (centres unmarked) [Example 37, 1-(3,4,5-Trimethoxy-benzoyl)-3-[2-[4-[1-(pyrid-2-ylmethyl)-1 H-benzoimidazole-2-carbonyl]-piperidin-1-yl]-ethyl]-3-phenyl-pyrrolidine] | 25.1 | 17 | – | –
COc1ccc(C2(CCN3CCC(O)(c4nc5ccccc5n4Cc4ccc(F)cc4)CC3)CCN(C(=O)c3cc(OC)c(OC)c(OC)c3)C2)cc1OC (centres unmarked) [Example 5, 1-(3,4,5-Trimethoxy-benzoyl)-3-[2-[4-[1-(4-fluoro-benzyl)-1 H-benzoimidazol-2-yl]-4-hydroxy-piperidin-1-yl]-ethyl]-3-(3,4-dimethoxy-phenyl)-pyrrolidine] | 269 | 25 | – | –
